Test results as given in publication PMC6539479.
“Also recorded” adds a separate entry of the source. Read-outs that look alike come from different tables or passages of the source.

Legend:
human TASK-3 channels [1] = conditions: cited from earlier work
human TASK-3 channels [2] = assay: IonWorks Quattro electrophysiology assay, HEK293 (Coburn et al.); conditions: TASK-3, from reported IC50
TASK-1 = tested on: TASK-1; design: method as in PMID 30803485; conditions: cited from earlier work
[3] = Table 1, Figure 4B and text, TASK-3
[4] = Table S2, TASK-3, ref 16 (supplement ref 1)
[5] = Table S3 reported activity, TASK-3

| SMILES | IC50 (human TASK-3 channels [1]; [4]) [µM] | other results |
| --- | --- | --- |
| O=C(c1ccc(-c2ccccc2)cc1)N1CCc2ncnc(N3CCCC3)c2C1 [Compound 17b] |  | IC50 (human TASK-3 channels [1]; [3]): 27 µM; inhibiting TASK-3 channels (human TASK-3 channels [1]; potency range in words): micromolar range; fold lower affinity than PK-THPP (human TASK-3 channels [2]): ~1000 fold |
| CCOC(=O)C1CCN(c2ncnc3c2CN(C(=O)c2ccc(C)cc2)CC3)CC1 [Compound 12d] | 0.31 ± 0.08 |  |
| CCOC(=O)C1CCN(c2ncnc3c2CN(C(=O)Nc2ccc(-c4ccccc4)cc2)CC3)CC1 [Compound 10c] | 9.6 ± 0.5 |  |
| O=C(c1ccc(-c2ccccc2)cc1)N1CCc2ncnc(N3CCOCC3)c2C1 [Compound 17d] | 4.6 ± 1.1 |  |
| CCOC(=O)C1CCN(c2ncnc3c2CN(S(=O)(=O)c2ccccc2Cl)CC3)CC1 [Compound 11d] | 0.9 ± 0.1 |  |
| COC1CCN(c2ncnc3c2CN(C(=O)c2ccc(-c4ccccc4)cc2)CC3)CC1 [Compound 19] | 0.135 ± 0.037 | IC50 (human TASK-3 channels [1]; [5]): 0.135 µM |
| CCOC(=O)C1CCN(c2ncnc3c2CN(C(=O)c2ccc(-c4ccccc4)cc2)CC3)CC1 [Compound 12f] | 0.074 ± 0.009 |  |
| O=C(c1ccc(-c2ccccc2)cc1)N1CCc2ncnc(N3CCCCC3)c2C1 [Compound 17c] | 4 ± 1.1 |  |
| CCOC(=O)C1CCN(c2nc(C)nc3c2CN(C(=O)c2ccc(-c4ccccc4)cc2)CC3)CC1 [Compound 14b] | 0.26 ± 0.05 |  |
| CCOC(=O)C1CCN(c2ncnc3c2CN(C(=O)c2ccc(-c4ccccc4)cc2)CC3(C)C)CC1 [Compound 13a] | 0.57 ± 0.03 |  |
| CCC(=O)C1CCN(c2ncnc3c2CN(C(=O)c2ccc(-c4ccccc4)cc2)CC3)CC1 [Compound 24] | 0.08 ± 0.009 | IC50 (human TASK-3 channels [1]; [5]): 0.08 µM |
| O=C(c1ccc(-c2ccccc2)cc1)N1CCc2ncnc(N3CCS(=O)(=O)CC3)c2C1 [Compound 17e] | 0.57 ± 0.06 | IC50 (human TASK-3 channels [1]; [5]): 0.57 µM |
| CCCC(=O)C1CCN(c2ncnc3c2CN(C(=O)c2ccc(-c4ccccc4)cc2)CC3)CC1 [PK-THPP] |  | potency on TASK-1 relative to TASK-3 (TASK-1): almost nine-times less potency; also recorded: almost nine-fold less potency |
| CCOC(=O)C1CCN(c2ncnc3c2CN(C(=O)c2ccc(-c4ccccc4)cc2)C(C)(C)C3)CC1 [Compound 13b] | 0.65 ± 0.03 |  |
| CCc1noc(C2CCN(c3ncnc4c3CN(C(=O)c3ccc(-c5ccccc5)cc3)CC4)CC2)n1 [Compound 22] | 0.07 ± 0.01 | IC50 (human TASK-3 channels [1]; TASK-3): 0.07 µM; IC50 (human TASK-3 channels [1]; [3]): 0.07 µM; IC50 (human TASK-3 channels [1]; [5]): 0.07 µM |
| CCOC(=O)C1CCN(c2ncnc3c2CN(C(=O)c2ccc(C4CCCCC4)cc2)CC3)CC1 [Compound 12e] | 0.12 ± 0.01 |  |
| CCOC(=O)C1CCN(c2ncnc3c2CN(S(=O)(=O)Cc2ccccc2)CC3)CC1 [Compound 11a] | 3.6 ± 0.4 |  |
| CCOC(=O)C1CCN(c2ncnc3c2CN(C(=O)c2ccc(OC)cc2)CC3)CC1 [Compound 12b] | 1.6 ± 0.18 |  |
| CCOC(=O)C1CCN(c2ncnc3c2CN(Cc2ccccc2)CC3)CC1 [Compound 9c] | 0.71 ± 0.08 |  |
| CCOC(=O)C1CCN(c2ncnc3c2CN(S(=O)(=O)c2ccc(Cl)cc2)CC3)CC1 [Compound 11b] | 3.9 ± 0.5 |  |
| O=C(c1ccc(-c2ccccc2)cc1)N1CCc2ncnc(N3CC[C@H]4OCCC[C@@H]4C3)c2C1 [Compound 20b] | 0.07 ± 0.007 | IC50 (human TASK-3 channels [1]; TASK-3): 0.07 µM; IC50 (human TASK-3 channels [1]; [3]): 0.07 µM; IC50 (human TASK-3 channels [1]; [5]): 0.07 µM |
| CC(C)(O)C1CCN(c2ncnc3c2CN(C(=O)c2ccc(-c4ccccc4)cc2)CC3)CC1 [Compound 21] | 0.05 ± 0.006 | IC50 (human TASK-3 channels [1]; TASK-3): 0.05 µM; IC50 (human TASK-3 channels [1]; [3]): 0.05 µM; IC50 (human TASK-3 channels [1]; [5]): 0.05 µM |
| CCOC(=O)C1CCN(c2ncnc3c2CN(C(=O)c2ccc(Br)cc2)CC3)CC1 [Compound 12c] | 0.43 ± 0.06 |  |
| CS(=O)(=O)C1CCN(c2ncnc3c2CN(C(=O)c2ccc(-c4ccccc4)cc2)CC3)CC1 [Compound 18] | 0.082 ± 0.005 | IC50 (human TASK-3 channels [1]; [5]): 0.082 µM |
| CCOC(=O)C1CCN(c2ncnc3c2CN(C(=O)c2ccccc2)CC3)CC1 [Compound 12a] | 3.6 ± 0.77 |  |
| CCOC(=O)C1CCN(c2ncnc3c2CN(C(=O)NCc2ccccc2)CC3)CC1 [Compound 10b] | 3.4 ± 0.4 |  |
| CCOC(=O)C1CCN(c2ncnc3c2CN(S(=O)(=O)c2cccc(Cl)c2)CC3)CC1 [Compound 11c] | 0.7 ± 0.07 |  |
